What was measured:
[1] = system: gastrocnemius (GA) muscle; experiment: In vivo muscle force after downhill treadmill run, aged mice, gastrocnemius; design: species or system mouse
Experimental: In vivo muscle force measurement: Aged mice (18 mo.) were subjected to downhill treadmill run for 2 consecutive weeks. During week 1, mice ran daily for 5 days and rested on days 6 and 7. […] During week 2, mice were subjected to 5 days treadmill run only. The treadmill run was performed using the Exer3/6 (Columbus Instruments). Mice ran for 10 minutes on the treadmill at 20 degrees downhill, starting at a speed of 7 meters/min. After 3 min, the speed was increased by 1 meter/min to a final speed of 14 meter/min. […] Force measurements were on the GA muscles at week 5 based on a protocol published previously^5. Briefly, for each mouse, an incision was made to expose the GA. We severed the calcaneus bone with intact achilles tendon and attached the tendon-bone complex to a 300C-LR force transducer (Aurora Scientific) with a thin metal hook. The muscles and tendons were kept moist by periodic wetting with saline (0.9% sodium chloride) solution. The lower limb was immobilized below the knee by a metal clamp without compromising the blood supply to the leg. The mouse was under inhaled anesthetic (2% isofluorane) during the entire force measuring procedure and body temperature was maintained by a heat lamp. […] Data were collected with a PCI-6251 acquisition card (National Instruments) and analyzed in Matlab. We calculated specific force values by normalizing the force measurements by the muscle physiological cross-sectional areas (PCSAs), which were similar between the control and the experimental PGE2 treated group (Table 2). PCSA (measured in mm^2) was calculated according to the following equation^12: PCSA (mm^2)=[mass (g)×Cos θ]÷[ρ (g/mm^3)×fiber length (mm)], where θ is pennation angle of the fiber and ρ is muscle density (0.001056 g/mm^3). […]
The muscle force and synchronization pulses were recorded via a PCI-6251 acquisition card (National Instruments) and analyzed using Matlab. FIGS. 5O-5P show the specific muscle force values that were calculated by normalizing the force measurements with the muscle physiological cross-sectional area. […]

[2] = system: endogenous MuSCs in TA muscle; experiment: Endogenous MuSC BLI in Pax7CreERT2;Rosa26-LSL-Luc mice after cardiotoxin injury; type: in vivo, mouse; details: 13 nmol three days post-cardiotoxin, BLI days 3-14
Experimental: Bioluminescence imaging: We performed bioluminescence imaging (BLI) using a Xenogen-100 system, as previously described^1,5,6. Briefly, we anesthetized mice using isofluorane inhalation and administered 120 μL D-luciferin (0.1 mmol kg^−1, reconstituted in PBS; Caliper LifeSciences) by intraperitoneal injection. We acquired BLI using a 60 s exposure at F-stop=1.0 at 5 minutes after luciferin injection. Digital images were recorded and analyzed using Living Image software (Caliper LifeSciences). We analyzed images with a consistent region-of-interest (ROI) placed over each hindlimb to calculate a bioluminescence signal. We calculated a bioluminescence signal in radiance (p s^−1 cm^−2 sr^−1) value of 10^4 to define an engraftment threshold. This radiance threshold of 10^4 is approximately equivalent to the total flux threshold in p/s reported previously. This BLI threshold corresponds to the histological detection of one or more GFP+ myofibers^1,5,6. We performed BLI imaging every week after transplantation. […]
We performed bioluminescence imaging (BLI) using a Xenogen-100 system, as previously described (24, 26, 27, 30). […] Digital images were recorded and analyzed using Living Image software (Caliper LifeSciences). We analyzed images with a consistent region-of-interest (ROI) placed over each hindlimb to calculate a bioluminescence signal. We calculated a bioluminescence signal in radiance (p s^−1 cm^−2 sr^−1) value of 10^4 to define an engraftment threshold. […]
Bioluminescent Imaging: For bioluminescence imaging (BLI), we anesthetized mice using isofluorane inhalation and administered 120 μL D-luciferin (0.1 mmol kg^−1, reconstituted in PBS; Caliper LifeSciences) by intraperitoneal injection. […] Digital images were recorded and analyzed using Living Image software (Caliper LifeSciences). We analyzed images with a consistent region-of-interest (ROI) placed over each hindlimb to calculate a bioluminescence signal. We calculated a bioluminescence signal in radiance (p s^−1 cm^−2 sr^−1) value of 10^4 to define an engraftment threshold. […]

[3] = 13 nM dmPGE2 daily for 5 days after downhill treadmill run, force at week 5

| Structure (SMILES) | specific tetanic force of gastrocnemius [1, 3] | specific twitch force of gastrocnemius [1, 3] | BLI of endogenous MuSCs after injury and PGE2/dmPGE2 [2] | specific twitch force of gastrocnemius muscles (Example 2) ([1]; treadmill to exhaustion daily for 10 days, 3 nM PGE2 after each run, force 4 weeks after last run) |
| --- | --- | --- | --- | --- |
| CCCCC(C)(C)[C@H](O)/C=C/[C@H]1[C@H](O)CC(=O)[C@@H]1C/C=C\CCCC(=O)O [dmPGE2, 16,16-dimethyl prostaglandin E2] | significantly increased | significantly increased | in agreement with the histological data | – |
| CCCCC[C@H](O)/C=C/[C@H]1[C@H](O)CC(=O)[C@@H]1C/C=C\CCCC(=O)O [PGE2, prostaglandin E2] | – | – | in agreement with the histological data | increase in specific twitch force |
